Assay results as given in publication PMC11274883, “Anticancer Effect of Pt^[sequence], Pt^II5MESS, Pt^II56MESS and Their Platinum(IV)-Dihydroxy Derivatives against Triple-Negative Breast Cancer and Cisplatin-Resistant Colorectal Cancer” (Cancers, 2024).

Legend:
Assay type in all cases: cell-based
[1] = test system: HT29 cells; experiment: Western blot protein expression; details: HT29, IC50, 72 h; for β-actin/GAPDH normalized to control (1): representative blot Figure S28A; for β-tubulin/GAPDH normalized to control (1): representative blot Figure S28B; for α-tubulin/GAPDH normalized to control (1): representative blot Figure S28C; for p-AKT/AKT/GAPDH normalized to control (1): representative blot Figure S29A; for p-ERK/ERK/GAPDH normalized to control (1): representative blot Figure S29B; for p53/GAPDH normalized to control (1): representative blot Figure S29C; for p21/GAPDH normalized to control (1): representative blot Figure S29D; for Bax/GAPDH normalized to control (1): representative blot Figure S30A; for Bcl2/GAPDH normalized to control (1): representative blot Figure S30B; for Cyt C/GAPDH normalized to control (1): representative blot Figure S30C; for Procaspase 8/GAPDH normalized to control (1): representative blot Figure S30D; for Cleaved BID/GAPDH normalized to control (1): representative blot Figure S30E; for Procaspase 9/GAPDH normalized to control (1): representative blot Figure S30F; for Cleaved caspase 3/GAPDH normalized to control (1) / Procaspase 3/GAPDH normalized to control (1): representative blot Figure S30G; for Cleaved PARP-1/GAPDH normalized to control (1) / PARP-1/GAPDH normalized to control (1): representative blot Figure S30H; for Beclin1/GAPDH normalized to control (1): representative blot Figure S31A; for ATG5/GAPDH normalized to control (1): representative blot Figure S31B; for ATG16L1/GAPDH normalized to control (1): representative blot Figure S31C; for ATG9A/GAPDH normalized to control (1): representative blot Figure S31D; for ATG4B/GAPDH normalized to control (1): representative blot Figure S31E; for LC3B/GAPDH normalized to control (1): representative blot Figure S31F
Experimental: Protein extraction was then performed on ice. Media were collected in Eppendorf tubes, and centrifuged at 500× g for 5 min at 4 °C. Meanwhile, 200 µL of lysis RIPA buffer, made up of 150 mM NaCl, 50 mM Tris-HCl, pH 8.0, 0.1% Triton X-100, 0.5% sodium deoxycholate, 0.1% SDS and 1 mM sodium orthovanadate, was added to each well, the cells were scrapped into the buffer, and added to the media-derived pellets. The tubes were placed on the shaker for 10 min at 4 °C. Then, cell extracts were centrifuged at 12,000× g for 15 min at 4 °C, and the supernatants (containing the proteins) were collected. The Bio-Rad-DC protein assay (Bio-Rad, Hercules, CA, USA) was used to assess protein content. Laemmli protein sample buffer (4×) with β-mercaptoethanol (9%) was used to prepare a final protein concentration of 20 µg. The samples were then heated at 100 °C for 5 min. A final volume of 30 µL of each sample was added per well and subjected to SDS-PAGE using Bolt 4–12% Bis-Tris gel (Thermo Fisher, Eugene, OR, USA) at 80 V for 30 min and then 120 V for 60 min with PageRuler™ Prestained Protein or SeeBlue Prestained Protein Ladder (Thermo Fisher, Eugene, OR, USA). Proteins were subsequently transferred to a 0.2 µm PVDF membrane (Amersham, Cytiya) using a semi-dry blot transfer. The membrane was then blocked in 5% BSA in TBST, for 1 h and probed overnight at 4 °C with primary antibodies against several cell proliferation, apoptotic, anti-apoptotic, microtubule and autophagic protein markers listed in Table S7 as per the manufacturer’s protocol. The primary antibody was then removed, washed three times for 10 min with TBST and then membranes were treated with either mouse or rabbit HRP-coupled secondary antibodies (1/3000) for 1 h and 30 min. Protein band detection was then performed using the chemiluminescence ECL kit (Thermo Fisher, Eugene, OR, USA). Blot images were obtained using the Odyssey® FC imaging system (LI-COR Biosciences, Lincoln, NE, USA) and band intensities were quantified relatively to glyceraldehyde-3-phosphate dehydrogenase (GAPDH) and then normalised each replicate gel to its corresponding no treatment control using the ImageJ v1.53t software (National Institutes of Health, Bethesda, MD, USA). Each marker results from the same experiment or parallel experiment where the gels were processed in parallel. Three independent experiments per marker were conducted.

[2] = test system: HT29 cells; experiment: TMRE mitochondrial membrane potential assay; details: complexes at IC50, FCCP 20 µM
Experimental: (§1) Cells were then treated with an IC50 drug concentration for each complex. At 24, 48 or 72 h, DMEM was removed, and cells were washed with PBS. Then, cells were incubated with 1 µM tetramethylrhodamine, ethyl ester (TMRE) stain for 30 min. TMRE was then removed, and cells were washed twice with PBS (0.2% BSA), after which phenol red-free media was added. […] The cells were then stained with TMRE, as described above, and the resulting solution was scanned for fluorescence. Three independent experiments in triplicates were implemented.

[3] = test system: MDA−MB−231 cells; experiment: TMRE mitochondrial membrane potential assay; details: complexes at IC50, FCCP 20 µM
Experimental: as §1

[4] = test system: HT29 spheroids; experiment: 3D bioprinted spheroid cytotoxicity (WST-1); details: 72 h, mean ± SEM
Source text: (§2) To evaluate the cytotoxic effect of platinum(II) and (IV) complexes in 3D cell culture, MDA−MB−231 or HT29 cells were used to bioprint networks or spheroids with the non-contact drop-on-demand 3D RASTRUM bioprinter (Inventia Life Science, Alexandria, NSW, Australia). The 3D cultures use two constituents: bioink and activator. Cell pellets (2 × 10^6 cells) were resuspended in an activator reagent which forms an instant gel after its addition to the bioink by the bioprinter. The 3D large plug cell model with polyethylene glycol bioinks formulated to mimic the properties of in vivo tissue were chosen as follows. Matrix Px02.31 (activator F177 and bioink F242 with RGD: Fibronectin) was used for MDA−MB−231 3D embedded networks, Px02.00 (activator F177 and bioink F119 without RGD additives, Table S1) was used for MDA−MB−231 spheroids and matrix #Px02.09 (activator F177 and bioink F236 with adhesion peptides including, RGD: Fibronectin, and GFOGER: collagen type I to recapitulate rich in vivo tissue extracellular environments) was used for HT29 spheroids (Inventia Life Science) (Table S1). Each cell line was printed at 10,000 cells/well and loaded with the bioink fluids into the selected printer cartridge. After the automated priming of all fluids into the printer nozzles, each cell line was individually printed on tissue culture plates (Nunc^TM MicroWell^TM 96-Well, Nunclon Delta-Treated, Flat-Bottom Microplate, ThermoFisher #167008), with RASTRUM creating the 3D Large Plug across the 96-well plate. Following completion of the print run, 200 μL DMEM culture medium was added to each well using multichannel pipettes. The plate was then incubated for 7 days (humidified incubator with 5% CO2 at 37 °C) for compact and homogenous spheroid formation before the cytotoxicity assay. When the spheroids developed, post-7-day incubation, media was removed and replaced with 100 µL DMEM. […] Cytotoxicity was then assessed using the WST-1 assay as previously described in Section 2.3.

[5] = test system: MDA−MB−231 spheroids; experiment: 3D bioprinted spheroid cytotoxicity (WST-1); details: 72 h, mean ± SEM
Source text: as §2

Cc1cc2cccnc2c2ncccc12.N[C@H]1CCCC[C@@H]1N.O=[N+]([O-])[O-].O=[N+]([O-])[O-].[OH][Pt+2][OH] [Pt^IV5MESS(OH)2, [Pt(5-methyl-1,10-phenanthroline)(1S,2S-diaminocyclohexane)(dihydroxy)](NO3)2]
β-actin/GAPDH normalized to control (1) [1]: 0.2948
β-tubulin/GAPDH normalized to control (1) [1]: 0.1611
α-tubulin/GAPDH normalized to control (1) [1]: 0.1518
p-AKT/AKT/GAPDH normalized to control (1) [1]: 0.4249
p-ERK/ERK/GAPDH normalized to control (1) [1]: 1.297
p53/GAPDH normalized to control (1) [1]: 3.349
p21/GAPDH normalized to control (1) [1]: 2.658
Bax/GAPDH normalized to control (1) [1]: 3.075
Bcl2/GAPDH normalized to control (1) [1]: 0.4381
Cyt C/GAPDH normalized to control (1) [1]: 6.184
Procaspase 8/GAPDH normalized to control (1) [1]: 0.4372
Cleaved BID/GAPDH normalized to control (1) [1]: 2.712
Procaspase 9/GAPDH normalized to control (1) [1]: 0.2026
Cleaved caspase 3/GAPDH normalized to control (1) [1]: 7.887
Procaspase 3/GAPDH normalized to control (1) [1]: 1.238
Cleaved PARP-1/GAPDH normalized to control (1) [1]: 5.761
PARP-1/GAPDH normalized to control (1) [1]: 0.6207
Beclin1/GAPDH normalized to control (1) [1]: 6.943
ATG5/GAPDH normalized to control (1) [1]: 0.2364
ATG16L1/GAPDH normalized to control (1) [1]: 2.006
ATG9A/GAPDH normalized to control (1) [1]: 2.334
ATG4B/GAPDH normalized to control (1) [1]: 0.5922
LC3B/GAPDH normalized to control (1) [1]: 1.713
MtMp (mitochondrial membrane potential) ([2]; HT29, 24 h): 304.45 RFU
MtMp (mitochondrial membrane potential) ([2]; HT29, 48 h): 224.23 RFU
MtMp (mitochondrial membrane potential) ([2]; HT29, 72 h): 198.24 RFU
MtMp (mitochondrial membrane potential) ([3]; MDA−MB−231, 24 h): 250.80 RFU
MtMp (mitochondrial membrane potential) ([3]; MDA−MB−231, 48 h): 201.07 RFU
MtMp (mitochondrial membrane potential) ([3]; MDA−MB−231, 72 h): 155.85 RFU
IC50 [4]: 8.46 ± 1.23 µM
IC50 [5]: 7.99 ± 1.3 µM

Cc1c(C)c2cccnc2c2ncccc12.N[C@H]1CCCC[C@@H]1N.O=[N+]([O-])[O-].O=[N+]([O-])[O-].[OH][Pt+2][OH] [Pt^IV56MESS(OH)2, [Pt(5,6-dimethyl-1,10-phenanthroline)(1S,2S-diaminocyclohexane)(dihydroxy)](NO3)2]
β-actin/GAPDH normalized to control (1) [1]: 1.209
β-tubulin/GAPDH normalized to control (1) [1]: 0.7075
α-tubulin/GAPDH normalized to control (1) [1]: 0.5719
p-AKT/AKT/GAPDH normalized to control (1) [1]: 0.7209
p-ERK/ERK/GAPDH normalized to control (1) [1]: 1.28
p53/GAPDH normalized to control (1) [1]: 5.047
p21/GAPDH normalized to control (1) [1]: 2.808
Bax/GAPDH normalized to control (1) [1]: 3.498
Bcl2/GAPDH normalized to control (1) [1]: 1.034
Cyt C/GAPDH normalized to control (1) [1]: 7.663
Procaspase 8/GAPDH normalized to control (1) [1]: 0.4035
Cleaved BID/GAPDH normalized to control (1) [1]: 2.651
Procaspase 9/GAPDH normalized to control (1) [1]: 0.4964
Cleaved caspase 3/GAPDH normalized to control (1) [1]: 1.746
Procaspase 3/GAPDH normalized to control (1) [1]: 1.297
Cleaved PARP-1/GAPDH normalized to control (1) [1]: 2.724
PARP-1/GAPDH normalized to control (1) [1]: 0.7172
Beclin1/GAPDH normalized to control (1) [1]: 6.222
ATG5/GAPDH normalized to control (1) [1]: 0.3221
ATG16L1/GAPDH normalized to control (1) [1]: 4.523
ATG9A/GAPDH normalized to control (1) [1]: 0.9044
ATG4B/GAPDH normalized to control (1) [1]: 0.9223
LC3B/GAPDH normalized to control (1) [1]: 1.976
MtMp (mitochondrial membrane potential) ([2]; HT29, 24 h): 258.69 RFU
MtMp (mitochondrial membrane potential) ([2]; HT29, 48 h): 172.39 RFU
MtMp (mitochondrial membrane potential) ([2]; HT29, 72 h): 124.84 RFU
MtMp (mitochondrial membrane potential) ([3]; MDA−MB−231, 24 h): 190.39 RFU
MtMp (mitochondrial membrane potential) ([3]; MDA−MB−231, 48 h): 156.37 RFU
MtMp (mitochondrial membrane potential) ([3]; MDA−MB−231, 72 h): 92.94 RFU
IC50 [4]: 3.16 ± 1.32 µM
IC50 [5]: 4.59 ± 1.35 µM

N[C@H]1CCCC[C@@H]1N.O=[N+]([O-])[O-].O=[N+]([O-])[O-].[OH-].[OH-].[Pt+4].c1cnc2c(c1)ccc1cccnc12 [[Pt(1,10-phenanthroline)(1S,2S-diaminocyclohexane)(dihydroxy)](NO3)2]
β-actin/GAPDH normalized to control (1) [1]: 0.8943
β-tubulin/GAPDH normalized to control (1) [1]: 0.8137
α-tubulin/GAPDH normalized to control (1) [1]: 0.4054
p-AKT/AKT/GAPDH normalized to control (1) [1]: 1.011
p-ERK/ERK/GAPDH normalized to control (1) [1]: 1.229
p53/GAPDH normalized to control (1) [1]: 4.543
p21/GAPDH normalized to control (1) [1]: 3.293
Bax/GAPDH normalized to control (1) [1]: 3.388
Bcl2/GAPDH normalized to control (1) [1]: 1.194
Cyt C/GAPDH normalized to control (1) [1]: 7.091
Procaspase 8/GAPDH normalized to control (1) [1]: 0.9474
Cleaved BID/GAPDH normalized to control (1) [1]: 2.711
Procaspase 9/GAPDH normalized to control (1) [1]: 0.5927
Cleaved caspase 3/GAPDH normalized to control (1) [1]: 1.017
Procaspase 3/GAPDH normalized to control (1) [1]: 1.141
Cleaved PARP-1/GAPDH normalized to control (1) [1]: 2.239
PARP-1/GAPDH normalized to control (1) [1]: 0.6475
Beclin1/GAPDH normalized to control (1) [1]: 8.006
ATG5/GAPDH normalized to control (1) [1]: 0.3102
ATG16L1/GAPDH normalized to control (1) [1]: 4.093
ATG9A/GAPDH normalized to control (1) [1]: 1.203
ATG4B/GAPDH normalized to control (1) [1]: 0.9049
LC3B/GAPDH normalized to control (1) [1]: 2.232
MtMp (mitochondrial membrane potential) ([2]; HT29, 24 h): 312.19 RFU
MtMp (mitochondrial membrane potential) ([2]; HT29, 48 h): 261.95 RFU
MtMp (mitochondrial membrane potential) ([2]; HT29, 72 h): 215.58 RFU
MtMp (mitochondrial membrane potential) ([3]; MDA−MB−231, 24 h): 297.56 RFU
MtMp (mitochondrial membrane potential) ([3]; MDA−MB−231, 48 h): 257.95 RFU
MtMp (mitochondrial membrane potential) ([3]; MDA−MB−231, 72 h): 179.38 RFU
IC50 [4]: 11.4 ± 1.31 µM
IC50 [5]: 13.5 ± 1.25 µM
